Assay results published in patent publication US12036212B2, “Enhancement of tumor response to chemotherapy by activation of the asmase/ceramide pathway through timed administration of a short-acting anti-angiogenic agent” (Memorial Sloan-Kettering Cancer Center, priority 2014, dated 2024).
One block for each molecule: values may come before it.

Experiments:
[1] = in vivo; cited from earlier work
ceramide [2] = assay: Ceramide generation (diacylglycerol kinase assay) in BAEC; format: cell-based, bovine; details: etoposide 50 μM
Protocol: (§1) BAEC were established from the intima of bovine aorta as described^1. Stock cultures were grown in 100-mm dishes in Dulbecco's modified Eagle's medium (DMEM) supplemented with glucose (1 g/liter), 5% heat-inactivated calf serum (CS), penicillin (50 units/ml), and streptomycin (50 μg/ml). Purified human recombinant bFGF (1 ng/ml; R&D Systems, Inc., Minneapolis, MN) was added every other day during the exponential growth phase. […] These plateau phase cells were either used for experiments, or further sub-cultured (up to a maximum of 10 times) at a split ratio of 1:8. For sub-culturing, monolayers were dissociated with STV (0.05% trypsin and 0.02% EDTA in PBS) for 2-3 min at 22° C., washed twice in 5% CS-DMEM, and resuspended in DMEM with supplements as above. These mild conditions of trypsinization were sufficient to detach cells but not injure, stimulate, or affect cell function in a detectable way. BAEC were maintained at 37° C. in 10% CO2 humidified incubators.
After treatment, cells were placed on ice, washed with cold PBS, and lipids were extracted by addition of scraped cells in methanol to an equal volume of chloroform and 0.6 volume of buffered saline/EDTA solution (135 mM NaCl, 4.5 mM KCl, 1.5 mM CaCl2), 0.5 mM MgCl2, 5.6 mM glucose, 10 mM HEPES pH 7.2, 10 mM EDTA). Lipids in the organic phase extract were dried under N2 and subjected to mild alkaline hydrolysis (0.1 N methanolic KOH for 1 hour at 37° C.) to remove glycerophospholipids. Samples were re-extracted, and the organic phase was dried under N2. Ceramide contained in each sample was resuspended in a 100 μl reaction mixture containing 150 μg of cardiolipin, 280 μM diethylenetriaminepentaacetic acid, 51 mM octyl-β-glucopyranoside (Calbiochem), 50 mM NaCl, 51 mM imidazole, 1 mM EDTA, 12.5 mM MgCl2, 2 mM dithiothreitol, 0.7% glycerol, 70 μM β-mercaptoethanol, 1 mM ATP, 10 μCi of [γ-^32P]ATP, 35 μg/ml Escherichia coli diacylglycerol kinase (Calbiochem) at pH 6.5. After 30 minutes at room temperature, the reaction was stopped by extraction of lipids with 1 ml of chloroform:methanol:1 N HCl (100:100:1), 170 μl of buffered saline solution (BSS) (135 mM NaCl, 1.5 mM CaCl2, 0.5 mM MgCl2, 5.6 mM glucose, and 10 mM HEPES (pH 72), and 30 μl of 100 mM EDTA. The lower organic phase was dried under N2. Ceramide-1 phosphate was resolved by thin-layer chromatography on silica gel 60 plates (Whatman) using a solvent system of chloroform:methanol:acetic acid (65:15:5, v/v/v) and detected by autoradiography, and incorporated ^32P was quantified by liquid scintillation counting. The level of ceramide was determined by comparison with a standard curve generated concomitantly of known amounts of ceramide.
To test the effect of chemotherapy on ASMase signaling and ceramide production, BAEC were treated with paclitaxel (100 nM) and ASMase activity was determined by radioenzymatic assay (Rotolo et al, infra) using [^14C-methylcholine] sphingomyelin (Amersham) as substrate (FIG. 1A). […] Ceramide generation was monitored using the diacylglycerol kinase assay (Stancevic et al. PLoS ONE 8, e69025, 2013). […]
(§2) To determine the generality of the results observed, experiments were carried out using an additional endothelial cell line, human coronary artery endothelial cells (HCAEC); experiments were also performed using a different chemotherapeutic agent. […] Next, HCAEC were treated with paclitaxel (100 nM) (data not shown) and etoposide (50 μM) (FIG. 1F), and ceramide generation was evaluated. […]

ASMase = ASMase activity radioenzymatic assay in BAEC; format: cell-based, bovine; details: etoposide 50 μM
Protocol: as §1
ASMase activity was quantified by radioenzymatic assay using [^14C-methylcholine]sphingomyelin (Amersham) as substrate as described (Schissel et al. J Biol Chem, 271, 18431-18436, 1996). Cell lysates were incubated with [^14C-methylcholine]-sphingomyelin substrate (0.026 mCi/9.5 nmol) in 250 mM sodium acetate, pH 5.0 supplemented with 0.1% Triton X-100 and 1 mM EDTA or 0.1 mM ZnCl. Reactions were terminated after 1 h with CHCl3:MeOH:1N HCl (100:100:1, v/v/v), and [^14C-methylcholine]phosphocholine product in the aqueous layer of the Folch extract was quantified using a Beckman Packard 2200 CA Tricarb scintillation counter. For detection of ASMase activity in patients, 10 μl of serum was used.
To test the effect of chemotherapy on ASMase signaling and ceramide production, BAEC were treated with paclitaxel (100 nM) and ASMase activity was determined by radioenzymatic assay (Rotolo et al, infra) using [^14C-methylcholine] sphingomyelin (Amersham) as substrate (FIG. 1A). Induction of ASMase activity was observed within 5 minutes after treatment, and the activation continued for 30 minutes. Ceramide generation was monitored using the diacylglycerol kinase assay (Stancevic et al. PLoS ONE 8, e69025, 2013). […] In further support of this, pre-incubation of BAEC with nystatin prior to treatment with chemotherapy inhibits chemotherapy-induced apoptosis (FIG. 3).
To determine the generality of the results observed, experiments were carried out using an additional endothelial cell line, human coronary artery endothelial cells (HCAEC); experiments were also performed using a different chemotherapeutic agent. […] Next, HCAEC were treated with paclitaxel (100 nM) (data not shown) and etoposide (50 μM) (FIG. 1F), and ceramide generation was evaluated.
To further establish the generality of ASMase activation by various chemotherapeutic agents, BAEC and HCAEC were treated with increasing doses of cisplatin (0.1-50 μM) (data not shown). […] The ASMase/ceramide pathway was activated by chemotherapeutic agents that belong to different classes of chemotherapeutic agents, such as: taxanes, topoisomerase inhibitors, and nucleoside analog metabolic inhibitors. Since such chemotherapy agents are characterized by distinct mechanisms of action in tumor cells, it is surprising that a group of such distinct agents converges on a common molecular (ASMase/ceramide) axis in endothelium. The present confirmation that distinct chemotherapeutic agents activate the ASMase/ceramide pathway permits the present inventors to take into account the results of experiments using single dose radiotherapy, which has been reported to activate the same pathway (Rao, S. S. et al., Axitinib sensitization of high Single Dose Radiotherapy. Radiotherapy and Oncology: Journal of the European Society for Therapeutic Radiology and Oncology 111, 88-93, doi:10.1016/j.radonc.2014.02.010 (2014)).
Gemcitabine was able to activate ASMase in cultured endothelial cells. […]

BAEC = assay: Apoptosis in vitro (Hoechst nuclear staining) in BAEC; format: cell-based, bovine; details: 8 hours; for Effect on etoposide-induced apoptosis: BAEC pre-incubated 30 min with bFGF 2 ng/mL, VEGF 2 ng/mL or nystatin 30 μg/mL, etoposide 50 μM
Protocol: Apoptosis was assessed in vitro by examining morphologic changes in nuclear chromatin using bis-benzimide trihydrochloride (Hoechst #33258; Sigma-Aldrich, Milwaukee WI). BAEC and HCAEC monolayer cultures were first detached using 0.25% trypsin and 0.02% EDTA in HBSS and then combined with the floating population of cells. The cell pellet was washed in PBS, resuspended in 3% paraformaldehyde, and incubated for 10 min at 22° C. Following the removal of fixative, cells were resuspended in PBS containing 8 μg/ml of Hoechst-33258. Following a 15-min incubation at 22° C., cells were placed on a glass slide, and scored for the incidence of apoptotic chromatin changes using fluorescence microscope.
Since the ASMase/ceramide pathway is known to play a critical role in endothelial injury and dysfunction, BAEC and HCAEC were treated with paclitaxel (100 nM), etoposide (50 μM), and cisplatin (0.1-50 μM), and endothelial apoptosis was assessed.
To set the basis for experiments involving evaluation of anti-angiogenic therapy in combination with chemotherapy, and the role of ASMase/ceramide pathway in this process, the effects of various factors on the chemotherapy induced cell death were assessed. BAEC were pre-incubated for 30 min with bFGF (2 ng/mL), VEGF (2 ng/mL) or nystatin (30 μg/mL) prior to treatment with etoposide (50 μM), and apoptosis was evaluated after 8 hours using bis-benzamide trihydrochloride staining (FIG. 3).

ceramide [3] = assay: Ceramide generation in HCAEC; format: cell-based, human; details: paclitaxel 100 nM, etoposide 50 μM, cisplatin 0.1-50 μM
Protocol: HCAEC were obtained from Clonetics™ Coronary Artery Endothelial Cell Systems (Cambrex Bio Science Inc.). For HCAEC culturing and sub-culturing Clonetics cell system components were used: EBM®-2, Endothelial Cell Basal Medium-2 with addition of Clonetics EGM-2-MV SingleQuots containing growth supplements (Cambrex) (Biomedical Technologies, Inc.). For sub-culturing, monolayers were dissociated with Clonetics® Trypsin/EDTA solution for 2-3 min at 22° C. at a split ratio of 1:4 to expand the cell population for experiments. HCAEC cultures were maintained at 37° C. in 5% CO2 humidified incubators.
After treatment, cells were placed on ice, washed with cold PBS, and lipids were extracted by addition of scraped cells in methanol to an equal volume of chloroform and 0.6 volume of buffered saline/EDTA solution (135 mM NaCl, 4.5 mM KCl, 1.5 mM CaCl2), 0.5 mM MgCl2, 5.6 mM glucose, 10 mM HEPES pH 7.2, 10 mM EDTA). […] After 30 minutes at room temperature, the reaction was stopped by extraction of lipids with 1 ml of chloroform:methanol:1 N HCl (100:100:1), 170 μl of buffered saline solution (BSS) (135 mM NaCl, 1.5 mM CaCl2, 0.5 mM MgCl2, 5.6 mM glucose, and 10 mM HEPES (pH 72), and 30 μl of 100 mM EDTA. The lower organic phase was dried under N2. Ceramide-1 phosphate was resolved by thin-layer chromatography on silica gel 60 plates (Whatman) using a solvent system of chloroform:methanol:acetic acid (65:15:5, v/v/v) and detected by autoradiography, and incorporated ^32P was quantified by liquid scintillation counting. The level of ceramide was determined by comparison with a standard curve generated concomitantly of known amounts of ceramide.
as §2

CRM = CRM detection by confocal microscopy in BAEC; format: cell-based, bovine; details: nystatin 30 μg/mL 30 min pre-treatment, paclitaxel 100 nM
Protocol: BAEC were grown on CC2-treated chamber slides (Nalge Nunc International Corp., Naperville, USA) and then exposed to etoposide or paclitaxel with or without pre-incubation with Nystatin (30 μg/ml, Sigma) for 30 min. BAEC were then washed in cold PBS, fixed for 15 min in fresh 2% paraformaldehyde, washed 2× with cold PBS, and blocked with 5% FBS in PBS for 20 min at room temperature. Cells were stained with anti-ceramide MID 15B4 IgM (Alexis Corporation) at 1:50 dilution for 1 hour at room temperature, washed 3× in PBS, and thereafter with Texas Red-conjugated secondary antibody (Jackson Immunoresearch Laboratories, Inc.) at 1:500 dilution for 1 hour at room temperature. Nonspecific fluorescence was excluded using isotype control IgM (BD Biosciences). Cells were washed 3×, stained with DAPI and mounted in 0.1% paraphenylenediamine. Fluorescence was detected using Leica TCS SP2 AOBS 1- and 2-photon laser scanning confocal (DMRXA2 upright stand) microscope coupled with MetaMorph 7.5 (Molecular Devices). Number of CRMs in membranes of endothelial cells was analyzed using MetaMorph 7.5 software that allowed outlining of regions containing CRMs based on two criteria: 1) CRM size (≥500 nm); 2) Intensity of ceramide staining. Mice: asmase^+/+ and asmase^−/− mice, maintained in a SCID background, were propagated using heterozygous breeding pairs and genotyped as previously described (Santana et al. Cell, 86, 189-199, 1996; Grassme et al. Nat Med 9, 322-330 (2003). 6-12 week-old C57BL6/SV129 male mice, purchased from The Jackson Laboratory (Bar Harbor).
To test the effect of chemotherapy on ASMase signaling and ceramide production, BAEC were treated with paclitaxel (100 nM) and ASMase activity was determined by radioenzymatic assay (Rotolo et al, infra) using [^14C-methylcholine] sphingomyelin (Amersham) as substrate (FIG. 1A). Induction of ASMase activity was observed within 5 minutes after treatment, and the activation continued for 30 minutes. Ceramide generation was monitored using the diacylglycerol kinase assay (Stancevic et al. PLoS ONE 8, e69025, 2013). […]

Molecule: COc1cc2c(Oc3ccc4[nH]c(C)cc4c3F)ncnc2cc1OCCCN1CCCC1 [cediranib]
Average half-life [1]: 22 to 27 h

Ceramide generation (ceramide [2]; paclitaxel 100 nM, cisplatin 0.1-50 μM): ceramide formation within a few minutes
ASMase activation (ASMase; cisplatin 0.1-50 μM, gemcitabine 100 nM time-course): activation of ASMase
Molecule: COc1cc([C@@H]2c3cc4c(cc3[C@@H](O[C@@H]3O[C@@H]5CO[C@@H](C)O[C@H]5[C@H](O)[C@H]3O)[C@H]3COC(=O)[C@H]23)OCO4)cc(OC)c1O [etoposide]
Ceramide formation remained for (ceramide [2]): 30 min
ASMase activation remained for (ASMase): 30 min
Apoptotic response (BAEC; bovine endothelial cells, cisplatin up to 50 μM, etoposide 50 μM alone): significantly induces apoptosis
Ceramide generation (ceramide [3]): leads to the generation of ceramide

Molecule: COc1cc2nccc(Oc3ccc(NC(=O)C4(C(=O)Nc5ccc(F)cc5)CC4)cc3)c2cc1OC [cabozantinib]
Average half-life [1]: 55 h

Molecule: VEGF
Effect on etoposide-induced apoptosis (BAEC): substantially inhibits etoposide-induced apoptosis

Molecule: Cc1ccc(C(=O)Nc2ccc(CN3CCN(C)CC3)c(C(F)(F)F)c2)cc1C#Cc1cnc2cccnn12 [ponatinib]
Average half-life [1]: 24 h

Molecule: bFGF: basic fibroblast growth factor, pro-angiogenic factor
Effect on etoposide-induced apoptosis (BAEC): substantially inhibits etoposide-induced apoptosis

Molecule: CCN(CC)CCNC(=O)c1c(C)[nH]c(/C=C2\C(=O)Nc3ccc(F)cc32)c1C [sunitinib]
Average half-life [1]: 40 to 60 h

Molecule: C[C@@H]1[C@H](O)[C@@H](C)/C=C/C=C/CC/C=C/C=C/C=C/C=C/C(O[C@H]2O[C@H](C)[C@@H](O)[C@H](N)[C@@H]2O)CC2O[C@](O)(CC(O)C(O)CCC(O)CC(O)CC(O)CC(=O)O[C@H]1C)CC(O)C2C(=O)O (some centres unmarked) [nystatin]
Effect on paclitaxel-induced CRM formation (CRM): prevented the formation of CRMs
Effect on etoposide-induced apoptosis (BAEC): substantially inhibits etoposide-induced apoptosis

Molecule: Cc1ccc(Nc2nccc(N(C)c3ccc4c(C)n(C)nc4c3)n2)cc1S(N)(=O)=O [pazopanib]
Average half-life [1]: about 30 hours

Molecule: CNC(=O)c1ccccc1Sc1ccc2c(/C=C/c3ccccn3)n[nH]c2c1 [axitinib]
Average half-life [1]: 2.5 to 6 h

Molecule: CNC(=O)c1cc(Oc2ccc(NC(=O)Nc3ccc(Cl)c(C(F)(F)F)c3)cc2)ccn1 [sorafenib]
Average half-life [1]: 25 to 48 h

Molecule: Cc1[nH]c(/C=C2\C(=O)Nc3ccccc32)c(C)c1CCC(=O)O [SU6668]
Average half-life [1]: 3.6 h

Molecule: anginex
Half-life [1]: ~0.833 h

Molecule: Clc1ccc(Nc2nnc(Cc3ccncc3)c3ccccc23)cc1 [vatalanib]
Average half-life [1]: 4.7 h
